Results reported in patent US12097200B2, “Combination of BI853520 with chemotherapeutic drugs” (INXMED (NANJING) CO., LTD., priority 2020, dated 2024).
Several values for one entry are separate records, joined by “and”; a condition that tells them apart may be missing. Identical values can stand only once.

Tests used:
[1] = tested on: SKOV-3 cells; test: Antitumor activity in mouse model of human ovarian cancer (SKOV-3 xenograft); assay type: in vivo; details: combination of both
Source text: For tumor volume, absolute values were used.
Appropriate statistical methods were used for evaluation.
SKOV-3 cells harboring CDKN2, MLH1, PIK3CA and TP53 gene mutations were obtained from ATCC (HTB-77).
PLD (Doxil) was purchased from Johnson & Johnson and dissolved in sterile 5% glucose solution.
Treatment was initiated when the median tumor volume was between 70 and 110 mm^3.

[2] = tested on: CTG-0257; test: Antitumor activity in ovarian cancer PDX model CTG-0257; assay type: in vivo, mouse; details: 30 days until end of test, doses as Table 3
Method: (§1) Body weights (at start of dosing) were approximately 20 grams. […] Immunocompromised female mice were housed in HEPA ventilated cages (Innocage® IVC, Innovive USA) at 68-74° F. (20-23° C.) and 30-70% humidity under a 12-hour light/12-hour dark cycle. […] Animals with >10% body weight loss compared to day 0 received DietAel 76A (ClearH2O®, Portland, ME) for free. There were 3 mice in each group.
(§2) Mice were implanted with tumor cells from the ChampionsTumorGraft® ovarian model, which was established from patients previously treated with platinum-based therapy. After tumors reached 1000-1500 mm^3, they were collected, and tumor fragments SCs were implanted in the left flank of female pre-study mice. Each study animal was implanted with a specific passage batch. Tumor volume was measured twice a week with calipers to monitor tumor growth, and tumor volume (TV) was calculated using the formula (0.52×[length×width^2]). […] After initiation of dosing, animals were weighed daily using a digital scale and TV was measured twice weekly. […]
(§3) Inhibitory effect on tumor growth was determined by calculating TGI (100%×[1−(final MTV−initial MTV of the treatment group)/(final MTV−initial MTV of the control group)]). […]
(§4) CR: no TV could be detected (<4×4 mm^2), in 2 consecutive measurements […]

[3] = tested on: CTG-0791; test: Antitumor activity in ovarian cancer PDX model CTG-0791; assay type: in vivo, mouse; details: CTG-0791 (carboplatin and paclitaxel-resistant); 35 days until end of test; doses as Table 3
Method: as §1, §2, §3, §4

[4] = tested on: CTG-0964; test: Antitumor activity in ovarian cancer PDX model CTG-0964; assay type: in vivo, mouse; details: CTG-0964 (carboplatin and paclitaxel-resistant); 35 days until end of test; doses as Table 3
Method: as §1, §2, §3, §4

[5] = tested on: CTG-1301; test: Antitumor activity in ovarian cancer PDX model CTG-1301; assay type: in vivo, mouse; details: CTG-1301 (carboplatin and paclitaxel-resistant); 38 days until end of test; doses as Table 3
Method: as §1, §2, §3, §4

[6] = tested on: CTG-1427; test: Antitumor activity in ovarian cancer PDX model CTG-1427; assay type: in vivo, mouse; details: 42 days until end of test, doses as Table 3
Method: as §1, §2, §3, §4

[7] = tested on: CTG-1627; test: Antitumor activity in ovarian cancer PDX model CTG-1627; assay type: in vivo, mouse; details: 28 days until end of test, doses as Table 3
Method: as §1, §2, §3, §4

[8] = tested on: CTG-1809; test: Antitumor activity in ovarian cancer PDX model CTG-1809; assay type: in vivo, mouse; details: CTG-1809 (carboplatin and paclitaxel-resistant); 36 days until end of test; doses as Table 3
Method: as §1, §2, §3, §4

[9] = tested on: KYSE-70 cells; test: Antitumor activity in mouse xenograft model of human esophageal cancer (KYSE-70); assay type: in vivo; details: KYSE-70 xenograft, combination of both
[10] = BI 853520 50 mg/kg qd, docetaxel 10 mg/kg q7d

COc1cc(C(=O)NC2CCN(C)CC2)c(F)cc1Nc1ncc(C(F)(F)F)c(Oc2cccc3c2C(=O)N(C)C3)n1 [BI 853520, 2-fluoro-5-methoxy-4-[(4-(2-methyl-3-oxo-2,3-dihydro-1H-isoindole-4-oxy)-5-trifluoromethyl-pyrimidin-2-yl)amino]-N-(1-methyl-piperidin-4-yl)benzamide]
TGI ([1]; day 1 to day 22, median tumor volumes, BI 853520 50 mg/kg qd, PLD 5 mg/kg q7d): 57%
Median tumor volume ([1]; day 22, BI 853520 50 mg/kg qd by gavage, PLD 5 mg/kg q7d i.v.): 306 mm^3
Tumor regression (animals with regression/animals in group) ([1]; day 22, BI 853520 50 mg/kg qd, PLD 5 mg/kg q7d): no tumor regression and 0/7
TGI (%) [2]: 67%
TGI (%) [3]: −21%
TGI (%) [4]: 66%
TGI (%) [5]: 43%
TGI (%) [6]: 59%
TGI (%) [7]: 50%
TGI (%) [8]: −58%
Median tumor volume ([9]; day 42, BI 853520 50 mg/kg qd by gavage, docetaxel 10 mg/kg q7d i.v.): 497 mm^3
Antitumor effect (in words) [9, 10]: no inhibitory effect on tumor growth
Change in median body weight [9, 10]: 8.8%
TGI [9, 10]: 42%
Tumor regression (animals with regression/animals in group) [9, 10]: 1 of the 7 and 1/7
